Legend:
APP/PSi 2×Tg mice = experiment: Water maze behavior test; format: in vivo; conditions: 200 mg/kg oral gavage once a day, 8 weeks; for The number of crossing the platform: test day 6, model group 0.9 ± 0.6; for Time in the target quadrant: test day 6, model group 12.8 ± 2.9, in s
Description: Rodents in water have a strong incentive to escape from the water environment, and can escape from the water environment in the fastest and most direct way. The process of learning to escape from the water environment reflects the learning ability of the animals. Spatial positioning according to the surrounding environment and purposefully swimming to a safe place in the water (such as a platform) can reflect the spatial learning and memory ability of the animals.
The test animals were APP/PSi 2×Tg mice (C57BL/6 wild-type mice as the blank control). Mice of 6-8 months old, weighing 20-40 g, were purchased from The Jackson laboratory.
APP/PSi mice are APP/PSi di-transgenic Alzheimer's disease (2×Tg-AD) model mice, and the appearance of deposition of Aβ is earlier than the pathological changes of tau protein for several months, which can more truly simulate the clinical process and pathological changes of Alzheimer's disease.
Preparation of 0.7% CMC-Na: 0.7 g CMC-Na was added with a proper amount of water, heated for dissolution, left for cooling to room temperature, diluted to 100 mL, and stored at 4° C.
Preparation of BTMP: 100 mg of BTMP was added to 10 mL of 0.7% CMC-Na to prepare a 10 mg/mL suspension for use.
Preparation of test compound and comparative compound 1: 100 mg of the compound to be tested was weighted and added to 10 mL of 0.7% CMC-Na to prepare a 10 mg/mL suspension for use.
The laboratory mice were randomly divided into groups (9 or 10 mice per group). Mice in each group were administrated at a dosage of 0.2 mL/10 g body weight by oral gavage once a day for eight weeks.
The mice in the blank control group, model group and test group were orally administrated for 8 consecutive weeks according to the above administration dosage/specification. The water maze training and test were started in the last week of administration. The water maze training and test lasted for six days, with a training period of five days and a testing period of one day. In addition, during the training and testing period of water maze (6 days in total), the indoor conditions such as lighting etc. were kept consistent, the room was kept quiet, and the interference from the environment and personnel was excluded.
2.1. Preparation before the test: a proper amount of water was put into the water maze pool with the water temperature being kept at 22±3° C. The platform was placed in a fixed position (target quadrant) and 1 cm below the water surface, and titanium dioxide was added until the water became white, so that the platform could not be seen clearly.
2.2. Training period (days 1 to 5): on each day, before the first quadrant training, each mouse was placed on the platform for 15 s (to increase the mice's sense of security on the platform), and then the mouse was put into the pool (with its head facing the pool wall) from the quadrant where the platform located, and the swimming time was set as 60 s. If the mouse found the platform within 60 s and stayed for 5 s, it was regarded as the platform being found successfully. If the mouse could not find the platform, then the time was recorded as 60 s. The mouse was guided to the platform and stayed for 20 s, the mouse was then taken out, and the quadrant training for this mouse was ended.
After the first quadrant training, the mouse was trained in the remaining three quadrants sequentially, where it is not necessary to place the mouse on the platform for 15 s before training. The training of each mouse in every two quadrants was conducted at an interval of 10-15 minute. In this way, the training was performed continuously for 5 days.
2.3. Testing period (day 6): 24 hours after the last training, the platform was removed, and the mouse was dropped at the position opposite to the quadrant where the platform previously located (i.e., the position furthest away from the platform). […]

[1] = Pharmacokinetic study, brain distribution test (TM in brain and whole blood); format: in vivo, SD rats; conditions: single gavage to rats, trapezoidal method, calculated after deducting the concentration at time zero
Description: The SD rats used in this test were purchased from Zhejiang Charles rive Laboratory Animal Co., Ltd. Both male and female rats of SPF grade weighting about 250 g were used.
Preparation of the test article: a proper amount of test article was weighed and ground as fine powder in a mortar. A certain amount of the vehicle was added to a proper container, and then the ground test article was added to the container under magnetic stirring. The mixture was stirred until the appearance is uniform.
The male SD rats were divided into three groups (16 rats in each group) (4 animals were sacrificed at 4 time points). […] The animals were sacrificed at 5 min, 1 h, 3 h, and 9 h after the administration. The brain was taken out immediately after sacrifice, rinsed with ice-cold water and rinsed. 50 mg of the brain tissue was weighed, added to 0.45 mL of 100 mM dipotassium hydrogen phosphate buffer (pH=5.0) and homogenized. Blood samples were taken simultaneously and anticoagulated with EDTA. After collection, blood samples were placed on ice. 150 μL of whole blood was taken and 150 μL of 5.2% perchloric acid was added to determine TM. Another 4 animals were gavage administered with normal saline for the determination of endogenous TM concentration. All samples were frozen and stored in a −80° C. refrigerator.
The concentrations of TM and TDP in the samples were determined by HPLC-FLD.
The non-compartment model of the DAS software was used to calculate the pharmacokinetic parameters of TM and TDP in blood of rats after administration. The concentration of TM in the brain tissue after the drug administration in rats was measured, and the mean value and standard deviation were calculated. The area under the drug-time curve AUC was calculated using the trapezoidal method.

Aβ40 = Aβ40 content in culture supernatant of HEK293APP/sw overexpressing cells (ELISA kit); format: cell-based; conditions: compound 400 μM, 24 hours, adjusted by total protein concentration, blank control 127.81
Description: (§1) BCA Protein Assay Kit was purchased from Beyotime, Aβ40 and Aβ42 detection kits were purchased from Wako, and cell culture related reagents were purchased from Gibco.
(§2) HEK293APP/sw overexpressing cells were cultured in DMEM medium containing 10% FBS, 100 μg/mL G418 (Geneticin) and 1×Penicillin-Streptomycin in 48-well plates. A 4 mM compound stock solution (prepared by dissolving the compound in DMEM culture medium) was filtered through a 0.22 μm sterile filter and stored at −20° C. for subsequent use. At 70% cell density, 40 μL of the compound test solution was added to each well to reach a final concentration of 400 μM, and the plate was incubated for 24 hours.
(§3) The supernatant of the culture medium was collected. The BCA reagent was added to a part of the supernatant, after incubating at room temperature for 30 min, the absorbance value (i.e., OD value) of each well was determined by a microplate reader at 570 nm. The total protein concentration was calculated according to a protein standard curve. Meanwhile, the other part of the supernatant (100 μL) was added to a coated 96-well plate and incubated overnight at 4° C., after the solution was removed and the reagents were washed, HRP (horseradish peroxidase)-labeled antibody was added and incubated at 4° C. for 2 hours. After the reagents were removed and washed, a TMB chromogenic solution was added, the plate was incubated at room temperature for 30 min, and then a stop solution was added to stop the reaction. The absorbance value (i.e., OD value) of each well was measured by a microplate reader at 450 nm. The concentrations of Aβ40 and Aβ42 were calculated according to the standard curves of Aβ40 and Aβ42, respectively. In the end, the concentrations of Aβ40 and Aβ42 were adjusted by the total protein concentration, so as to obtain the final concentration.

Aβ42 = Aβ42 content in culture supernatant of HEK293APP/sw overexpressing cells (ELISA kit); format: cell-based; conditions: compound 400 μM, 24 hours, adjusted by total protein concentration, blank control 11.08
Description: as §1, §2, §3

[2] = test day 6, model group 45.0 ± 8.8, 200 mg/kg

Structure (SMILES) | The number of crossing the platform (APP/PSi 2×Tg mice) | Time in the target quadrant (APP/PSi 2×Tg mice) | Latency period (APP/PSi 2×Tg mice; [2]) [s] | AUC of TM in the brain [1] [ng·h/g] | The content of Aβ40 (Aβ40) [pmol/L] | The content of Aβ42 (Aβ42) [pmol/L] | Latency period (APP/PSi 2×Tg mice; test day 6, model group 45.0 ± 8.8) [s]
C/C(=C(\CCOP(=O)(O)O)SC(=O)c1ccccc1)N(C=O)Cc1cnc(C)nc1N [BTMP, benfotiamine, reference compound] | 2.1 ± 0.6 | 18.0 ± 3.5 | 27.3 ± 1.6 | 739.9 | – | – | –
C/C(=C(\CCOP(=O)(O)O)SC(=O)C(C)C)N(C=O)Cc1cnc(C)nc1N [Comparative compound 1, reference compound] | 2.1 ± 0.6 | 18.1 ± 2.8 | 27.0 ± 1.3 | – | – | – | –
CCCCC(CC)C(=O)S/C(CCOP(=O)(O)O)=C(/C)N(C=O)Cc1cnc(C)nc1N (stereo not drawn) [Comparative compound 2, reference compound] | – | – | – | 555.9 | – | – | –
C/C(=C(\CCOP(=O)(O)O)SC(=O)OCCc1ccccc1)N(C=O)Cc1cnc(C)nc1N [Compound 5, (Z)—S-(2-(N-((4-amino-2-methylpyrimidin-5-yl)methyl)formamido)-5-(phosphonooxy)pent-2-en-3-yl) O-phenethyl carbonothioate] | 2.2 ± 0.7 | 17.7 ± 2.6 | – | – | 48.94 | 4.92 | 25.0 ± 2.2
C/C(=C(\CCOP(=O)(O)O)SC(=O)c1ccc(Cl)s1)N(C=O)Cc1cnc(C)nc1N [Compound 7, (Z)—S-(2-(N-((4-amino-2-methylpyrimidin-5-yl)methyl)formamido)-5-(phosphonooxy)pent-2-en-3-yl) 5-chlorothiophene-2-carbothioate] | – | – | – | – | 35.93 | 5.03 | –
COc1ccc2oc(C(=O)S/C(CCOP(=O)(O)O)=C(/C)N(C=O)Cc3cnc(C)nc3N)cc2c1 [Compound 8, (Z)—S-(2-(N-((4-amino-2-methylpyrimidin-5-yl)methyl)formamido)-5-(phosphonooxy)pent-2-en-3-yl) 5-methoxybenzofuran-2-carbothioate] | – | – | – | – | 60.96 | 2.31 | –
C/C(=C(\CCOP(=O)(O)O)SC(=O)c1cc2ccccc2o1)N(C=O)Cc1cnc(C)nc1N [Compound 13, (Z)—S-(2-(N-((4-amino-2-methylpyrimidin-5-yl)methyl)formamido)-5-(phosphonooxy)pent-2-en-3-yl) benzofuran-2-carbothioate] | – | – | – | – | 43.76 | 7.21 | –
C/C(=C(\CCOP(=O)(O)O)SC(=O)c1ccoc1)N(C=O)Cc1cnc(C)nc1N [Compound 15, (Z)—S-(2-(N-((4-amino-2-methylpyrimidin-5-yl)methyl)formamido)-5-(phosphonooxy)pent-2-en-3-yl) furan-3-carbothioate] | – | – | – | – | 37.88 | 10.52 | –
